Patent publication US9120779B2, “Inhibitors of HCV NS5A” (PRESIDIO PHARMACEUTICALS, INC., priority 2008, dated 2015)

Test system: HCV genotype 1b replicon in Huh 7 cells
Assay: HCV replicon assay (luciferase readout, 1b_Huh-Luc/Neo-ET cell line)
Format: cell-based
Details: Hepatitis C virus, Huh-7, 72 h, read-out: Inhibition of HCV genotype 1b, Table 5, 72 h incubation
Summary of the method: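 Inhibition expressed as percent of untreated control luciferase signal and fitted to a Hill-slope equation for EC50, with repeat determinations. Compounds were added in triplicate to Huh 7 cells stably expressing the genotype 1b luciferase replicon, with 72 h exposure.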

Row | Structure (SMILES) | EC50 [nM]
1 | COC(=O)N[C@H](C(=O)N1CCC[C@H]1c1ncc(-c2ccc(C34CCC(c5cnc([C@@H]6CCCN6C(=O)[C@@H](NC(=O)OC)[C@@H](C)OC)[nH]5)(CC3)CC4)cc2)[nH]1)[C@@H](C)OC [compound 612] | < 1
2 | COC(=O)N[C@@H](C(=O)N1CCC[C@H]1c1ncc(-c2ccc(C34CCC(c5cnc([C@@H]6CCCN6C(=O)[C@H](OC)c6ccccc6)[nH]5)(CC3)CC4)cc2)[nH]1)c1ccccc1 [compound 615] | < 1
3 | COC(=O)N[C@@H](C(=O)N1CCC[C@H]1c1ncc(-c2ccc(C34CCC(c5cnc([C@@H]6CCCN6C(=O)[C@H](NC(=O)OC)C(C)C)[nH]5)(CC3)CC4)cc2)[nH]1)c1ccccc1 [compound 616] | < 1
4 | COC(=O)N[C@H](C(=O)N1CCC[C@H]1c1ncc(C23CCC(c4ccc(-c5cnc([C@@H]6CCCN6C(=O)[C@H](NC(=O)OC)c6ccccc6)[nH]5)cc4)(CC2)CC3)[nH]1)C(C)C [compound 617] | < 1
5 | COC(=O)N[C@@H](C(=O)N1CCC[C@H]1c1ncc(-c2ccc(C34CCC(c5cnc([C@@H]6CCCN6C(=O)[C@@H](c6ccccc6)N(C)C)[nH]5)(CC3)CC4)cc2)[nH]1)c1ccccc1 [compound 618] | < 1
6 | CCN(CC)[C@@H](C(=O)N1CCC[C@H]1c1ncc(C23CCC(c4ccc(-c5cnc([C@@H]6CCCN6C(=O)[C@H](NC(=O)OC)c6ccccc6)[nH]5)cc4)(CC2)CC3)[nH]1)c1ccccc1 [compound 619] | < 1
7 | COC(=O)N[C@@H](C(=O)N1CCC[C@H]1c1ncc(C23CCC(c4ccc(-c5cnc([C@@H]6CCCN6C(=O)[C@H](OC)c6ccccc6)[nH]5)cc4)(CC2)CC3)[nH]1)c1ccccc1 [compound 620] | < 1
8 | COC(=O)N[C@@H](C(=O)N1CCC[C@H]1c1ncc(C23CCC(c4ccc(-c5cnc([C@@H]6CCCN6C(=O)[C@H](NC(=O)OC)C(C)C)[nH]5)cc4)(CC2)CC3)[nH]1)c1ccccc1 [compound 621] | < 1
9 | COC(=O)N[C@@H](C(=O)N1CCC[C@H]1c1ncc(C23CCC(c4ccc(-c5cnc([C@@H]6CCCN6C(=O)[C@@H](c6ccccc6)N(C)C)[nH]5)cc4)(CC2)CC3)[nH]1)c1ccccc1 [compound 622] | < 1
10 | COC(=O)N[C@@H](C(=O)N1CCC[C@H]1c1ncc(C23CCC(c4ccc(-c5cnc([C@@H]6CCCN6C(=O)[C@@H](c6ccccc6)N6CCCC6)[nH]5)cc4)(CC2)CC3)[nH]1)c1ccccc1 [compound 623] | < 1
11 | COC(=O)N[C@H](C(=O)N1CCC[C@H]1c1ncc(-c2ccc(C34CCC(c5cnc([C@@H]6CCCN6C(=O)[C@H](NC(=O)OC)c6ccccc6)[nH]5)(CC3)CC4)cc2)[nH]1)C(C)C [compound 624] | < 1
12 | COC(=O)N[C@@H](C(=O)N1CCC[C@H]1c1ncc(C23CCC(c4ccc(-c5cnc([C@@H]6CCCN6C(=O)[C@H](NC(=O)C6CC6)c6ccccc6)[nH]5)cc4)(CC2)CC3)[nH]1)c1ccccc1 [compound 625] | < 1
13 | COC(=O)N[C@H](C(=O)N1CCC[C@H]1c1ncc(-c2ccc(C34CCC(c5cnc([C@@H]6CCCN6C(=O)[C@H](NC(=O)OC(C)(C)C)c6ccccc6)[nH]5)(CC3)CC4)cc2)[nH]1)C(C)C [compound 626] | < 1
14 | COC(=O)N[C@H](C(=O)N1CCC[C@H]1c1ncc(-c2ccc(C34CCC(c5cnc([C@@H]6CCCN6C(=O)[C@@H](NC(=O)OC)C(C)C)[nH]5)(CC3)CC4)cc2)[nH]1)C(C)C [compound 627] | < 1
15 | CC(C)[C@H](NC(=O)N1CCOCC1)C(=O)N1CCC[C@H]1c1ncc(-c2ccc(C34CCC(c5cnc([C@@H]6CCCN6C(=O)[C@@H](NC(=O)N6CCOCC6)C(C)C)[nH]5)(CC3)CC4)cc2)[nH]1 [compound 628] | > 1000
16 | CC(C)[C@H](NC(=O)N1CC[C@@H](O)C1)C(=O)N1CCC[C@H]1c1ncc(-c2ccc(C34CCC(c5cnc([C@@H]6CCCN6C(=O)[C@@H](NC(=O)N6CC[C@@H](O)C6)C(C)C)[nH]5)(CC3)CC4)cc2)[nH]1 [compound 629] | > 1000
17 | CC(C)[C@H](NC(=O)N1CCC(O)CC1)C(=O)N1CCC[C@H]1c1ncc(-c2ccc(C34CCC(c5cnc([C@@H]6CCCN6C(=O)[C@@H](NC(=O)N6CCC(O)CC6)C(C)C)[nH]5)(CC3)CC4)cc2)[nH]1 [compound 630] | > 1000
18 | COC(=O)N[C@H](C(=O)N1CCC[C@H]1c1ncc(-c2ccc(C34CCC(c5cnc([C@@H]6CCCN6C(=O)[C@H](NC(=O)C6CC6)c6ccccc6)[nH]5)(CC3)CC4)cc2)[nH]1)C(C)C [compound 631] | < 1

Row | Structure (SMILES) | EC50 [nM]
19 | COC(=O)N[C@H](C(=O)N1CCC[C@H]1c1ncc(-c2ccc(C34CCC(c5cnc([C@@H]6CCCN6C(=O)[C@@H](c6ccccc6)N6CCCCC6)[nH]5)(CC3)CC4)cc2)[nH]1)C(C)C [compound 632] | < 1
20 | CC(C)[C@H](NC(=O)N1CCC(C)(O)CC1)C(=O)N1CCC[C@H]1c1ncc(-c2ccc(C34CCC(c5cnc([C@@H]6CCCN6C(=O)[C@@H](NC(=O)N6CCC(C)(O)CC6)C(C)C)[nH]5)(CC3)CC4)cc2)[nH]1 [compound 634] | < 1
21 | CC(C)[C@H](NC(=O)N1CC[C@H](O)C1)C(=O)N1CCC[C@H]1c1ncc(-c2ccc(C34CCC(c5cnc([C@@H]6CCCN6C(=O)[C@@H](NC(=O)N6CC[C@H](O)C6)C(C)C)[nH]5)(CC3)CC4)cc2)[nH]1 [compound 635] | < 1
22 | COC(=O)N[C@@H](C(=O)N1CCC[C@H]1c1ncc(-c2ccc(C34CCC(c5cnc([C@@H]6CCCN6C(=O)[C@@H](NC(=O)N6CCN(C)CC6)C(C)C)[nH]5)(CC3)CC4)cc2)[nH]1)c1ccccc1 [compound 637] | 1 to 9.9
23 | CC(C)[C@H](NC(=O)N1CCC(=O)CC1)C(=O)N1CCC[C@H]1c1ncc(-c2ccc(C34CCC(c5cnc([C@@H]6CCCN6C(=O)[C@@H](NC(=O)N6CCC(=O)CC6)C(C)C)[nH]5)(CC3)CC4)cc2)[nH]1 [compound 638] | > 1000
24 | CC(C)[C@H](NC(=O)N1CCCCC1)C(=O)N1CCC[C@H]1c1ncc(-c2ccc(C34CCC(c5cnc([C@@H]6CCCN6C(=O)[C@@H](NC(=O)N6CCCCC6)C(C)C)[nH]5)(CC3)CC4)cc2)[nH]1 [compound 639] | > 1000
25 | COC(=O)N[C@H](C(=O)N1CCC[C@H]1c1ncc(-c2ccc(C34CCC(c5cnc([C@@H]6CCCN6C(=O)[C@@H](NC(=O)N6CCCCC6)C(C)C)[nH]5)(CC3)CC4)cc2)[nH]1)C(C)C [compound 640] | > 1000
26 | COC(=O)N[C@H](C(=O)N1CCC[C@H]1c1ncc(-c2ccc(C34CCC(c5cnc([C@@H]6CCCN6C(=O)[C@@H](NC(=O)C6CCOCC6)C(C)C)[nH]5)(CC3)CC4)cc2)[nH]1)C(C)C [compound 641] | > 1000
27 | COC(=O)N[C@@H](C(=O)N1CCC[C@H]1c1ncc(-c2ccc(C34CCC(c5cnc([C@@H]6CCCN6C(=O)[C@@H](NC(=O)N6CCC(=O)CC6)C(C)C)[nH]5)(CC3)CC4)cc2)[nH]1)c1ccccc1 [compound 644] | 1 to 9.9
28 | COC(=O)N[C@H](C(=O)N1CCC[C@H]1c1ncc(C23CCC(c4ccc(-c5cnc([C@@H]6CCCN6C(=O)[C@@H](NC(=O)N6CCOCC6)C(C)C)[nH]5)cc4)(CC2)CC3)[nH]1)C(C)C [compound 645] | < 1
29 | COC(=O)N[C@H](C(=O)N1CCC[C@H]1c1ncc(C23CCC(c4ccc(-c5cnc([C@@H]6CCCN6C(=O)[C@@H](NC(=O)N6CCN(C)CC6)C(C)C)[nH]5)cc4)(CC2)CC3)[nH]1)C(C)C [compound 646] | 10 to 999
30 | COC(=O)N[C@H](C(=O)N1CCC[C@H]1c1ncc(C23CCC(c4ccc(-c5cnc([C@@H]6CCCN6C(=O)[C@@H](NC(=O)C6CCN(C)CC6)C(C)C)[nH]5)cc4)(CC2)CC3)[nH]1)C(C)C [compound 647] | 10 to 999
31 | COC(=O)N[C@H](C(=O)N1CCC[C@H]1c1ncc(C23CCC(c4ccc(-c5cnc([C@@H]6CCCN6C(=O)[C@@H](NC(=O)N6CCCCC6)C(C)C)[nH]5)cc4)(CC2)CC3)[nH]1)C(C)C [compound 648] | 10 to 999
32 | COC(=O)N[C@H](C(=O)N1CCC[C@H]1c1ncc(C23CCC(c4ccc(-c5cnc([C@@H]6CCCN6C(=O)[C@@H](NC(=O)N6CCC(O)CC6)C(C)C)[nH]5)cc4)(CC2)CC3)[nH]1)C(C)C [compound 649] | < 1
33 | COC(=O)N[C@H](C(=O)N1CCC[C@H]1c1ncc(C23CCC(c4ccc(-c5cnc([C@@H]6CCCN6C(=O)[C@@H](NC(=O)N6CCC(=O)CC6)C(C)C)[nH]5)cc4)(CC2)CC3)[nH]1)C(C)C [compound 650] | 1 to 9.9
34 | COC(=O)N[C@H](C(=O)N1CCC[C@H]1c1ncc(C23CCC(c4ccc(-c5cnc([C@@H]6CCCN6C(=O)[C@@H](NC(=O)N6CC[C@H](O)C6)C(C)C)[nH]5)cc4)(CC2)CC3)[nH]1)C(C)C [compound 651] | 1 to 9.9
35 | COC(=O)N[C@H](C(=O)N1CCC[C@H]1c1ncc(C23CCC(c4ccc(-c5cnc([C@@H]6CCCN6C(=O)[C@@H](NC(=O)N6CCC[C@H]6CO)C(C)C)[nH]5)cc4)(CC2)CC3)[nH]1)C(C)C [compound 652] | < 1
36 | COC(=O)N[C@H](C(=O)N1CCC[C@H]1c1ncc(-c2ccc(C34CCC(c5cnc([C@@H]6CCCN6C(=O)[C@@H](NC(=O)OC)C6CC6)[nH]5)(CC3)CC4)cc2)[nH]1)C1CC1 [compound 908] | < 1

Same assay, conditions: read-out: Inhibition of HCV genotype 1b, Table 5, 72 h incubation

Row | Structure (SMILES) | EC50 [nM]
37 | COC(=O)N[C@H](C(=O)N1CCC[C@H]1c1ncc(-c2ccc(C34CCC(c5cnc([C@@H]6CCCN6C(=O)[C@@H](NC(=O)N6CCC(O)CC6)C(C)C)[nH]5)(CC3)CC4)cc2)[nH]1)C(C)C [compound 633] | < 1
38 | COC(=O)N[C@H](C(=O)N1CCC[C@H]1c1ncc(-c2ccc(C34CCC(c5cnc([C@@H]6CCCN6C(=O)[C@@H](NC(=O)N6CCOCC6)C(C)C)[nH]5)(CC3)CC4)cc2)[nH]1)C(C)C [compound 636] | < 1
39 | COC(=O)N[C@@H](C(=O)N1CCC[C@H]1c1ncc(-c2ccc(C34CCC(c5cnc([C@@H]6CCCN6C(=O)[C@@H](NC(=O)N6CCN(C)CC6)C(C)C)[nH]5)(CC3)CC4)cc2)[nH]1)c1ccccc1 [compound 642] | 1 to 9.9
40 | COC(=O)N[C@@H](C(=O)N1CCC[C@H]1c1ncc(-c2ccc(C34CCC(c5cnc([C@@H]6CCCN6C(=O)[C@@H](NC(=O)N6CCOCC6)C(C)C)[nH]5)(CC3)CC4)cc2)[nH]1)c1ccccc1 [compound 643] | 1 to 9.9
